Source: ChEMBL document CHEMBL1128356, “Antineoplastic agents. 291. Isolation and synthesis of combretastatins A-4, A-5, and A-6(1a)” (1995)

Key:
[1] = tested on: Panel (Carcinoma cell lines); experiment: In vitro antitumor activity against human tumor cancer cell lines; assay type: functional
[2] = tested on: NCI 60 human tumor cell line panel (Homo sapiens); experiment: In vitro inhibitory activity against NCI 60 human tumor cell line panel

Row | Structure (SMILES) | GI50 [1] | GI50 [2]
1 | COc1ccc(/C=C\c2cc(OC)c(OC)c(OC)c2)c(O)c1O [COMBRETASTATIN A-1] | 16.2 nM | –
2 | COc1ccc(/C=C/c2cc(O)c(OC)c(OC)c2)cc1OC | – | > 100000 nM
3 | COc1ccc(/C=C\c2cc(OC)c(OC)c(OC)c2)cc1O [COMBRETASTATIN A4] | – | 3.2 nM
4 | COc1ccc(/C=C\c2cc(O)c(OC)c(OC)c2)cc1OC | – | 1650 nM
5 | COc1ccc(/C=C\c2cc(OC)c3c(c2)OCO3)cc1O [Combretastatin A-2] | 31.6 nM | –
